The test concerns C57BL/6 mice. Kind of test: elevated plus maze model of anxiety disorder. In kind it is in vivo. The text has this: The dosage ranges are based upon our preclinical rodent studies testing the anti-anxiety effects of formula (I) and crocin (across varying doses and combinations) on mouse behavior in the elevated plus maze task (see FIG. 1). The elevated plus maze is one of the most widely used tests for measuring anxiety-like behavior and the anti-anxiety effects of pharmacological agents and is based on the natural aversion of mice for open and elevated areas, as well as their natural spontaneous exploratory activity in novel environments. […] Finally, these dosage ranges, as identified from our preclinical studies are commensurate with clinical dosages safely prescribed in humans.
The elevated plus maze model is a behavioral assay for rodents which has been used to assess the […] effect of pharmacological agents. In the model, anxiety behavior of rodents is assessed by determining the ratio of time spent on the arms relative to the time spent in the closed arms of the elevated plus maze structure. The model relies on rodents' affinity to dark, enclosed spaces.
In the elevated plus model, C57BL/6 mice, aged between 6 and 7 weeks were acclimated for at least five days and assigned randomly to treatment groups. Mice were housed on a 12 hour light/dark cycle. No more than 4 mice were kept in each ventilated cage. Mice were provided with standard rodent chow and water ad libitum. Test compounds were administered through the oral route in a volume of 10 milliliters per kilogram (ml/kg) and were formulated in 0.9% saline. 12 groups of mice were tested in the model, each group consisting of 10 mice. After acclimation, test compositions were administered to the animals in the amounts, in milligram per kilogram of mouse weight (mg/kg) according to table 1.
As shown in the table, Group 1 was administered vehicle only. Groups 2 through 7 were administered various combinations of psilocybin and crocin. Groups 8-12 were administered either psilocybin alone or crocin alone. Behavioral testing was performed between 7-9 days after administration of the compounds.
Testing was performed in dim light of 40 lux. The elevated plus maze consists of two open and two closed arms (arm length: 30 cm; width: 5 cm). Open arms have a small 1 cm edge and the closed arms are bordered by a 15 cm wall. At the beginning of the task, mice were placed in the center of the elevated plus maze facing an open arm. Mice were video tracked while exploring the maze for 5 min. The time spent in the open and closed arms was measured and analyzed.
Comparisons were performed using 1 w-ANOVA, Fisher's LSD test. Significance is shown with a single asterisk if P<0.05, with a double asterisk if P<0.01, and with a triple asterisk if P<0.001.

Turning to `CC(/C=C/C=C(\C)C(=O)O[C@@H]1O[C@H](CO[C@@H]2O[C@H](CO)[C@@H](O)[C@H](O)[C@H]2O)[C@@H](O)[C@H](O)[C@H]1O)=C\C=C\C=C(C)\C=C\C=C(/C)C(=O)O[C@@H]1O[C@H](CO[C@@H]2O[C@H](CO)[C@@H](O)[C@H](O)[C@H]2O)[C@@H](O)[C@H](O)[C@H]1O` [crocin, Crocin], the “time in open arms of elevated plus maze vs vehicle” value (shortened to “time in open arms … vs vehicle”) (crocin alone 30 mg/kg oral, tested 7-9 days after administration, 5 min) is “did not show a significant beneficial effect on anxiety” and the “time in open arms … vs vehicle” value (crocin alone 50 mg/kg oral, tested 7-9 days after administration, 5 min) is recorded as “did not show a significant beneficial effect on anxiety”.
For the molecule `CN(C)CCc1c[nH]c2cccc(OP(=O)(O)O)c12` [psilocybin, Psilocybin], the “time in open arms … vs vehicle” value (psilocybin 0.5 mg/kg and higher, administered on its own) is listed as “either no changes in mouse behavior were observed, or increased anxiety-like behavior”; the “time in open arms … vs vehicle” value (psilocybin alone 0.1 mg/kg oral, tested 7-9 days after administration, 5 min) was “no significant difference”; the “time in open arms … vs vehicle” value (psilocybin alone 0.5 mg/kg oral, tested 7-9 days after administration, 5 min) is listed as “significant reduction in open arm time”; the “time in open arms … vs vehicle” value (psilocybin alone 1 mg/kg oral, tested 7-9 days after administration, 5 min) was “significant reduction in open arm time”.

Source of the values: US20230372296A1, “COMPOSITIONS AND METHODS FOR ANXIETY DISORDER TREATMENT” (PSILOBRAIN THERAPEUTICS INC., priority 2020, published 2023).
